Legend:
MMP-2 = experiment: Substrate phage display with NGS: relative probability (RP) of P3-P1' tetramer clusters; type: biochemical, human; settings: for avg_RP: MMP2 - no binning; for relative probability (RP) of matching tetramer: P3-P1' tetramer matching the MS detected MMP2 cleavage sequence, RP_above_4.5
MMP-9 = experiment: as above; type: biochemical, human
[1] = RP of the P3-P1' tetramer, MMP2 substrate phage display/NGS, tetramers of physiologic MEROPS substrates common to MMP2 and MMP9
[2] = RP of the P3-P1' tetramer, MMP9 substrate phage display/NGS, tetramers of physiologic MEROPS substrates common to MMP2 and MMP9
[3] = MMP2, RP of matching P3-P1' tetramer, common set of MMP2-9 selectome, RP above KL threshold
[4] = RP of matching tetramer, common MMP2-9 selectome
[5] = MMP9, RP of matching P3-P1' tetramer, common set of MMP2-9 selectome
[6] = MMP9, RP of the P3-P1' tetramer matching the MS detected cleavage, RP above 4.7, substrate phage display with NGS
[7] = RP of matching tetramer, common MMP2-9 selectome, RP above KL threshold
[8] = RP according to MMP2, P3-P1' tetramer of unique physiologic MMP2 substrates from MEROPS
[9] = RP according to MMP9, P3-P1' tetramer of unique physiologic MMP9 substrates from MEROPS
[10] = RP of the P3-P1' tetramer cluster contained in the hexamer, 200 nM MMP-2, 2 h, 37°C, two rounds of selection
[11] = MMP9, RP of the P3-P1' tetramer contained in the hexamer substrate (substrate phage display, NGS)
[12] = average relative probability of the tetramer, redundant tetramers averaged out

Substance: PSGK
- relative probability (RP) (acc.to MMP2) (MMP-2; [1]): 2.08
- relative probability (RP) (acc.to MMP9) (MMP-9; [2]): 1.08

Substance: PSGL
- relative probability (RP) (acc.to MMP2) (MMP-2; [1]): 35.5
- relative probability (RP) (acc.to MMP9) (MMP-9; [2]): 47.39

Substance: PSKL
- avg_RP (MMP-2; average relative probability (RP) of the P3-P1' tetramer, redundant tetramers have been averaged out): 32.2205
- relative probability (RP) (acc.to MMP2) (MMP-2; [3]): 32.22
- relative probability (RP) of matching tetramer (MMP-2): 32.22
- relative probability (RP) (acc.to MMP2) (MMP-2; [4]): 32.22
- relative probability (RP) (acc.to MMP9) (MMP-9; [5]): 38.96
- relative probability (RP) (MMP-9; [6]): 38.96
- relative probability (RP) (acc.to MMP9) (MMP-9; [7]): 38.96

Substance: PSLQ
- MMP2 relative probability (RP) (MMP-2; MMP2 tetramers from unique substrates, unrounded values): 7.654
- Relative probability (RP) rank (MMP-2; [8]): 6015
- relative probability (RP) (MMP-2; [8]): 7.65
- relative probability (RP) (acc.to MMP2) (MMP-2; [1]): 7.65
- corresponding MMP9 relative probability (RP) (MMP-9; MMP2 tetramers from unique substrates, RP of same tetramer for MMP9): 1.544
- Relative probability (RP) rank (MMP-9; [9]): 11624
- relative probability (RP) (MMP-9; [9]): 1.54
- relative probability (RP) (acc.to MMP9) (MMP-9; [2]): 1.54

Substance: PSNMEG
- relative probability (RP) (MMP-2; [10]): 32.3748
- relative probability (RP) (MMP-9; [11]): 45.3884

Substance: PSPADI
- relative probability (RP) (MMP-2; [10]): 23.2522
- relative probability (RP) (MMP-9; [11]): 25.0899

Substance: PSQM
- relative probability (RP) (acc.to MMP2) (MMP-2; [1]): 27.24
- relative probability (RP) (acc.to MMP9) (MMP-9; [2]): 37.02

Substance: PSSV
- relative probability (RP) (acc.to MMP2) (MMP-2; [1]): 20.49
- relative probability (RP) (acc.to MMP9) (MMP-9; [2]): 25.16

Substance: PTGK
- relative probability (RP) (acc.to MMP2) (MMP-2; [1]): 0.04
- relative probability (RP) (acc.to MMP9) (MMP-9; [2]): 0

Substance: PTGL
- avg_RP (MMP-2; [12]): 33.1098
- relative probability (RP) (acc.to MMP2) (MMP-2; [1]): 33.11
- relative probability (RP) (acc.to MMP9) (MMP-9; [2]): 39.89

Substance: PTGS
- relative probability (RP) (acc.to MMP2) (MMP-2; [1]): 0.04
- relative probability (RP) (acc.to MMP9) (MMP-9; [2]): 0.05

Substance: PTGV
- relative probability (RP) (acc.to MMP2) (MMP-2; [1]): 13.32
- relative probability (RP) (acc.to MMP9) (MMP-9; [2]): 11.14

Substance: PTNL
- relative probability (RP) (acc.to MMP2) (MMP-2; [1]): 31.03
- relative probability (RP) (acc.to MMP9) (MMP-9; [2]): 36.13

Substance: PTPKAL
- relative probability (RP) (MMP-2; [10]): 34.4858
- relative probability (RP) (MMP-9; [11]): 48.3581

Substance: PVAH
- relative probability (RP) (acc.to MMP2) (MMP-2; [4]): 24.82
- relative probability (RP) (MMP-9; [6]): 24.99
- relative probability (RP) (acc.to MMP9) (MMP-9; [7]): 24.99

Substance: PVAIPM
- relative probability (RP) (MMP-2; [10]): 32.4892
- relative probability (RP) (MMP-9; [11]): 44.9732

Substance: PVAV
- relative probability (RP) (acc.to MMP2) (MMP-2; [3]): 27.53
- relative probability (RP) of matching tetramer (MMP-2): 27.53
- relative probability (RP) (acc.to MMP2) (MMP-2; [4]): 27.53
- relative probability (RP) (acc.to MMP9) (MMP-9; [5]): 32.82
- relative probability (RP) (MMP-9; [6]): 32.82
- relative probability (RP) (acc.to MMP9) (MMP-9; [7]): 32.82

Substance: PVEL
- relative probability (RP) (acc.to MMP2) (MMP-2; [1]): 25.47
- relative probability (RP) (acc.to MMP9) (MMP-9; [2]): 35.1

Substance: PVGMKG
- relative probability (RP) (MMP-2; [10]): 32.557
- relative probability (RP) (MMP-9; [11]): 44.5811

Substance: PVLL
- relative probability (RP) (acc.to MMP2) (MMP-2; [3]): 15.16
- relative probability (RP) of matching tetramer (MMP-2): 15.16
- relative probability (RP) (acc.to MMP2) (MMP-2; [4]): 15.16
- relative probability (RP) (acc.to MMP9) (MMP-9; [5]): 19.22
- relative probability (RP) (MMP-9; [6]): 19.22
- relative probability (RP) (acc.to MMP9) (MMP-9; [7]): 19.22

Substance: PVNMTD
- relative probability (RP) (MMP-2; [10]): 30.0312
- relative probability (RP) (MMP-9; [11]): 44.4072

Substance: PVNV
- relative probability (RP) (acc.to MMP2) (MMP-2; [4]): 19.63
- relative probability (RP) (MMP-9; [6]): 24.66
- relative probability (RP) (acc.to MMP9) (MMP-9; [7]): 24.66

Substance: PVPV
- relative probability (RP) (acc.to MMP2) (MMP-2; [3]): 23.04
- relative probability (RP) of matching tetramer (MMP-2): 23.04
- relative probability (RP) (acc.to MMP2) (MMP-2; [4]): 23.04
- relative probability (RP) (acc.to MMP9) (MMP-9; [5]): 29.89
- relative probability (RP) (MMP-9; [6]): 29.89
- relative probability (RP) (acc.to MMP9) (MMP-9; [7]): 29.89

Substance: PVSL
- relative probability (RP) (acc.to MMP2) (MMP-2; [1]): 32.5
- relative probability (RP) (acc.to MMP9) (MMP-9; [2]): 42.36

Substance: PYEWHS
- relative probability (RP) (MMP-2; [10]): 1.984
- relative probability (RP) (MMP-9; [11]): 22.8534

Substance: PYGIKG
- relative probability (RP) (MMP-2; [10]): 28.2788
- relative probability (RP) (MMP-9; [11]): 49.5245

Substance: PYGL
- avg_RP (MMP-2; [12]): 32.9966
- relative probability (RP) (acc.to MMP2) (MMP-2; [1]): 33
- relative probability (RP) (acc.to MMP9) (MMP-9; [2]): 49.41

From paper PMC7932537, “Quantitative profiling of protease specificity” (PLoS Computational Biology, 2021)
